Measurements: PubChem BioAssay (NCI)
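Five concentrations, 48 hours, 96-well plates. TGI: concentration producing complete growth inhibition.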

Experiments:
Test in all cases: NCI tumour cell line growth inhibition, 48 h
A549 NSCLC = tested on: A549 NSCLC
ACHN renal = tested on: ACHN renal
BT-549 breast = tested on: BT-549 breast
CAKI-1 renal = tested on: CAKI-1 renal
CCRF-CEM leukemia = tested on: CCRF-CEM leukemia
COLO 205 colon = tested on: COLO 205 colon
DU-145 prostate = tested on: DU-145 prostate
EKVX NSCLC = tested on: EKVX NSCLC
HCC-2998 colon = tested on: HCC-2998 colon
HCT-116 colon = tested on: HCT-116 colon
HCT-15 colon = tested on: HCT-15 colon
HL-60(TB) leukemia = tested on: HL-60(TB) leukemia
HOP-92 NSCLC = tested on: HOP-92 NSCLC
HS 578T breast = tested on: HS 578T breast
HT29 colon = tested on: HT29 colon
IGROV1 ovarian = tested on: IGROV1 ovarian
K-562 leukemia = tested on: K-562 leukemia
KM12 colon = tested on: KM12 colon
LOX IMVI melanoma = tested on: LOX IMVI melanoma
M14 melanoma = tested on: M14 melanoma
MCF7 breast = tested on: MCF7 breast
MDA-MB-231 breast = tested on: MDA-MB-231 breast
MDA-MB-435 = tested on: MDA-MB-435
MDA-N = tested on: MDA-N
MOLT-4 leukemia = tested on: MOLT-4 leukemia
NCI-H23 lung = tested on: NCI-H23 lung
NCI-H460 lung = tested on: NCI-H460 lung
NCI-H522 lung = tested on: NCI-H522 lung
NCI/ADR-RES ovarian = tested on: NCI/ADR-RES ovarian
OVCAR-3 ovarian = tested on: OVCAR-3 ovarian
OVCAR-4 ovarian = tested on: OVCAR-4 ovarian
OVCAR-5 ovarian = tested on: OVCAR-5 ovarian
OVCAR-8 ovarian = tested on: OVCAR-8 ovarian
PC-3 prostate = tested on: PC-3 prostate
RPMI-8226 leukemia = tested on: RPMI-8226 leukemia
RXF 393 renal = tested on: RXF 393 renal
SF-268 CNS = tested on: SF-268 CNS
SF-295 CNS = tested on: SF-295 CNS
SF-539 CNS = tested on: SF-539 CNS
SK-MEL-2 melanoma = tested on: SK-MEL-2 melanoma
SK-MEL-28 melanoma = tested on: SK-MEL-28 melanoma
SK-MEL-5 melanoma = tested on: SK-MEL-5 melanoma
SK-OV-3 ovarian = tested on: SK-OV-3 ovarian
SN12C renal = tested on: SN12C renal
SNB-19 CNS = tested on: SNB-19 CNS
SNB-75 CNS = tested on: SNB-75 CNS
SR leukemia = tested on: SR leukemia
SW-620 colon = tested on: SW-620 colon
T-47D breast = tested on: T-47D breast
TK-10 renal = tested on: TK-10 renal
U251 CNS = tested on: U251 CNS
UACC-257 melanoma = tested on: UACC-257 melanoma
UACC-62 melanoma = tested on: UACC-62 melanoma
UO-31 renal = tested on: UO-31 renal
786-0 renal = tested on: 786-0 renal
HOP-62 NSCLC = tested on: HOP-62 NSCLC
MALME-3M melanoma = tested on: MALME-3M melanoma
NCI-H226 lung = tested on: NCI-H226 lung

Measured: TGI

CCC(=O)NC(Nc1ccccc1F)(C(F)(F)F)C(F)(F)F
> 100 µM: A549 NSCLC | ACHN renal | BT-549 breast | CAKI-1 renal | CCRF-CEM leukemia | COLO 205 colon | DU-145 prostate | EKVX NSCLC | HCC-2998 colon | HCT-116 colon | HCT-15 colon | HL-60(TB) leukemia | HOP-92 NSCLC | HS 578T breast | HT29 colon | IGROV1 ovarian | K-562 leukemia | KM12 colon | LOX IMVI melanoma | M14 melanoma | MCF7 breast | MDA-MB-231 breast | MDA-MB-435 | MDA-N | MOLT-4 leukemia | NCI-H23 lung | NCI-H460 lung | NCI-H522 lung | NCI/ADR-RES ovarian | OVCAR-3 ovarian | OVCAR-4 ovarian | OVCAR-5 ovarian | OVCAR-8 ovarian | PC-3 prostate | RPMI-8226 leukemia | RXF 393 renal | SF-268 CNS | SF-295 CNS | SF-539 CNS | SK-MEL-2 melanoma | SK-MEL-28 melanoma | SK-MEL-5 melanoma | SK-OV-3 ovarian | SN12C renal | SNB-19 CNS | SNB-75 CNS | SR leukemia | SW-620 colon | T-47D breast | TK-10 renal | U251 CNS | UACC-257 melanoma | UACC-62 melanoma | UO-31 renal

CCOC(=O)CC1C(O)C(=O)N(C)C1c1ccccc1 (stereo unspecified)
> 100 µM: 786-0 renal | A549 NSCLC | ACHN renal | BT-549 breast | CAKI-1 renal | CCRF-CEM leukemia | COLO 205 colon | DU-145 prostate | EKVX NSCLC | HCC-2998 colon | HCT-116 colon | HCT-15 colon | HL-60(TB) leukemia | HOP-62 NSCLC | HOP-92 NSCLC | HS 578T breast | HT29 colon | IGROV1 ovarian | K-562 leukemia | KM12 colon | LOX IMVI melanoma | M14 melanoma | MALME-3M melanoma | MCF7 breast | MDA-MB-231 breast | MDA-MB-435 | MDA-N | MOLT-4 leukemia | NCI-H226 lung | NCI-H23 lung | NCI-H522 lung | NCI/ADR-RES ovarian | OVCAR-3 ovarian | OVCAR-4 ovarian | OVCAR-5 ovarian | OVCAR-8 ovarian | PC-3 prostate | RPMI-8226 leukemia | RXF 393 renal | SF-268 CNS | SF-295 CNS | SF-539 CNS | SK-MEL-2 melanoma | SK-MEL-28 melanoma | SK-MEL-5 melanoma | SK-OV-3 ovarian | SN12C renal | SNB-19 CNS | SNB-75 CNS | SR leukemia | SW-620 colon | T-47D breast | TK-10 renal | U251 CNS | UACC-257 melanoma | UACC-62 melanoma | UO-31 renal
